Series [1] in a line: Drug metabolism in Sprague-Dawley rat hepatocytes treated with at 1 uM of paroxetine by radio-chromatogram analysis. Format: ADME, cell-based, Hepatocyte. To be noted: TDE = time-dependent effect.
The nature of series [2]: Drug metabolism in 4 days of sandwich-cultured Sprague-Dawley rat hepatocytes treated with at 1 uM of paroxetine by radio-chromatogram analysis. Format: ADME, cell-based, Hepatocyte. Conditions: 96 h, TDE = time-dependent effect; call rule not given here.
The nature of series [3]: Drug uptake in rat liver […] assessed as BCRP-mediated drug transport at 0.5 uM up to 2 mins by liquid scintillation counting in presence of ATP. The class given is ADME, subcellular.
Series [4] can be described thus: Drug metabolism in human hepatocytes treated with at 1 uM of paroxetine after 3 hrs by radio-chromatogram analysis. The class given is ADME, cell-based, Hepatocyte.
The nature of series [5]: Drug metabolism in 4 days of sandwich-cultured human hepatocytes treated with at 1 uM of paroxetine after 24 hrs by radio-chromatogram analysis. The class given is ADME, cell-based, Hepatocyte. To be noted: 96 h.
Series [6] can be described thus: Drug metabolism in 4 days of sandwich-cultured Sprague-Dawley rat hepatocytes assessed as biliary excretion index treated with at 1 uM of paroxetine after 0.025 to 24 hrs by radio-chromatogram analysis. The class given is ADME, tissue-based, Bile, Hepatocyte. Conditions: 96 h.
Series [7] can be described thus: Drug metabolism in 4 days of sandwich-cultured human hepatocytes assessed as biliary excretion index treated with at 1 uM of paroxetine after 0.025 to 24 hrs by radio-chromatogram analysis. Conditions: 96 h. The class given is ADME, tissue-based, Bile, Hepatocyte.
Series [8] in a line: Drug metabolism in Sprague-Dawley rat hepatocytes assessed as parent compound level at 1 uM by radio-chromatogram analysis. Format: ADME, cell-based, Hepatocyte. Conditions: TDE = time-dependent effect.
Series [9] is described as follows: Drug metabolism in human hepatocytes assessed as parent compound level at 1 uM after 3 hrs by radio-chromatogram analysis. The class given is ADME, cell-based, Hepatocyte. To be noted: read-out: Drug metabolism.
The nature of series [10]: Drug metabolism in Sprague-Dawley rat hepatocytes assessed as (2S,3R,4S,5S,6R)-2-(4-(((4R)-4-(4-fluorophenyl)piperidin-3-yl)methoxy)-2-methoxyphenoxy)-6-(hydroxymethyl)tetrahydro-2H-pyran-3,4,5-triol level at 1 uM by radio-chromatogram analysis. Format: ADME, cell-based, Hepatocyte. Conditions: TDE = time-dependent effect.
The nature of series [11]: Drug metabolism in 4 days of sandwich-cultured Sprague-Dawley rat hepatocytes assessed as parent compound level at 1 uM by radio-chromatogram analysis. Format: ADME, cell-based, Hepatocyte. Conditions: 96 h, TDE = time-dependent effect.
Series [12] can be described thus: Drug metabolism in 4 days of sandwich-cultured Sprague-Dawley rat hepatocytes assessed as parent compound level at 1 uM after 24 hrs by radio-chromatogram analysis. The class given is ADME, cell-based, Hepatocyte. To be noted: read-out: Drug metabolism.
Series [13] in a line: Drug metabolism in 4 days of sandwich-cultured Sprague-Dawley rat hepatocytes assessed as 4-(((4R)-4-(4-fluorophenyl)piperidin-3-yl)methoxy)-2-methoxyphenyl hydrogen sulfate level at 1 uM by radio-chromatogram analysis. Format: ADME, cell-based, Hepatocyte. Conditions: 96 h, TDE = time-dependent effect.
Series [14] in a line: Drug metabolism in 4 days of sandwich-cultured Sprague-Dawley rat hepatocytes assessed as (2S,3R,4S,5S,6R)-2-(4-(((4R)-4-(4-fluorophenyl)piperidin-3-yl)methoxy)-2-methoxyphenoxy)-6-(hydroxymethyl)tetrahydro-2H-pyran-3,4,5-triol level at 1 uM by radio-chromatogram analysis. Format: ADME, cell-based, Hepatocyte. Conditions: 96 h, TDE = time-dependent effect.
The nature of series [15]: Drug metabolism in 4 days of sandwich-cultured human hepatocytes assessed as parent compound level at 1 uM after 24 hrs by radio-chromatogram analysis. The class given is ADME, cell-based, Hepatocyte. To be noted: read-out: Drug metabolism.
Series [16] is described as follows: Drug metabolism in Sprague-Dawley rat hepatocytes assessed as parent compound level at 1 uM after 3 hrs by radio-chromatogram analysis. Format: ADME, cell-based, Hepatocyte. To be noted: read-out: Drug metabolism.
The nature of series [17]: Drug metabolism in Sprague-Dawley rat hepatocytes assessed as 4-(((4R)-4-(4-fluorophenyl)piperidin-3-yl)methoxy)-2-methoxyphenyl hydrogen sulfate level at 1 uM by radio-chromatogram analysis. The class given is ADME, cell-based, Hepatocyte. Conditions: TDE = time-dependent effect.

Molecules are shown by their SMILES.

For `COc1cc(OC[C@@H]2CNCC[C@H]2c2ccc(F)cc2)ccc1OS(=O)(=O)O`, the Drug metabolism entry in [1] is given as “tde”; in series [2], “tde”; in series [4], “metabolite_detected”; in [5], “metabolite_detected”; in series [6], “metabolite_detected”; in [7], “metabolite_detected”. For the same compound, the Drug uptake result in [3] is “Not Active”.

Turning to `Fc1ccc([C@@H]2CCNC[C@H]2COc2ccc3c(c2)OCO3)cc1.O=C(O)/C=C\C(=O)O`, the Drug metabolism result in [8], in series [10], in series [11], in series [13], in [14] and in series [17] was “tde” in each case. Besides, the remaining at 3 h, 1 µM in [9] was found to be 71.4%; in series [16] it was 29.7%. Besides, the results for the remaining at 96 h, 1 µM in series [12] and in series [15] were 36.6% and 52.8%, respectively.

Take `COc1cc(OC[C@@H]2CNCC[C@H]2c2ccc(F)cc2)ccc1O[C@@H]1O[C@H](C(=O)O)[C@@H](O)[C@H](O)[C@H]1O`: the Drug metabolism result in series [1] was “tde”; in series [2], “tde”; in series [4] it was “metabolite_detected”; in series [5], “metabolite_detected”; in [6] it was “metabolite_detected”; in series [7], “metabolite_detected”. The Drug uptake entry in [3] is “Active”.

For the origin of these results see ChEMBL document CHEMBL3525954, “Evaluation of hepatic disposition of paroxetine using sandwich-cultured rat and human hepatocytes” (Drug Metab Dispos, 2013).
